Article PMC6522510 (Nature Communications, 2019)
Where a name gives a salt, the structure may show the parent alone. Read-outs that look alike come from different tables or passages of the source.

Columns and labels:
Design in all cases: species or system AML cell lines (8); Primary HTS, single concentration about 10 uM, Cell Titer Glo viability; log10 luminescence, per cent inhibition relative to cycloheximide control
CHRF288-11 = conditions: 72 h, relative to cycloheximide control, log10 luminescence, inhibitor
ML-2 = conditions: 72 h, relative to cycloheximide control, log10 luminescence, inhibitor
M07e = conditions: 72 h, relative to cycloheximide control, log10 luminescence, inhibitor
CMS = conditions: 72 h, relative to cycloheximide control, log10 luminescence; inhibitor
MOLM-13 = conditions: 72 h, relative to cycloheximide control, log10 luminescence, inhibitor
CMK = conditions: 72 h, relative to cycloheximide control, log10 luminescence, inhibitor
U937 = conditions: 72 h, relative to cycloheximide control, log10 luminescence; inhibitor
MV4-11 = conditions: 72 h, relative to cycloheximide control, log10 luminescence, inhibitor

SMILES	CHRF288-11 %inh (CHRF288-11) [%]	ML-2 %inh (ML-2) [%]	M07e %inh (M07e) [%]	CMS %inh (CMS) [%]	MOLM-13 %inh (MOLM-13) [%]	CMK %inh (CMK) [%]	U937 %inh (U937) [%]	MV4-11 %inh (MV4-11) [%]	CHRF288-11 %inh (CHRF288-11; CHRF288-11 %inh, 10 µM) [%]	ML-2 %inh (ML-2; ML-2 %inh, 10 µM) [%]	M07e %inh (M07e; M07e %inh, 10 µM) [%]	MOLM-13 %inh (MOLM-13; MOLM-13 %inh, 10 µM) [%]	CMK %inh (CMK; CMK %inh, 10 µM) [%]	MV4-11 %inh (MV4-11; MV4-11 %inh, 10 µM) [%]
CO[C@@]1(NC(=O)Cc2cccs2)C(=O)N2C(C(=O)O)=C(COC(N)=O)CS[C@@H]21 [SJ000285599-4, CEFOXITIN SODIUM]	-4.487	-2.877	-3.67	-1.051	3.83	1.325	-1.811	-5.193	–	–	–	–	–	–
CCCCNC(=O)NS(=O)(=O)c1ccc(C)cc1 [SJ000285613-7, TOLBUTAMIDE]	-1.378	1.608	-0.3777	0.8795	-1.699	-3.705	-1.884	0.676	–	–	–	–	–	–
CC(C)[N+](C)(CCC(C(N)=O)(c1ccccc1)c1ccccc1)C(C)C [SJ000285636-4, ISOPROPAMIDE IODIDE]	8.188	-0.5962	2.458	-2.262	19.61	-6.961	-1.123	-0.6779	–	–	–	–	–	–
COc1cccc(OC)c1C(=O)N[C@@H]1C(=O)N2[C@@H]1SC(C)(C)[C@@H]2C(=O)O [SJ000285650-3, METHICILLIN SODIUM]	120.3	-0.07595	-0.3426	-3.883	-0.5712	-1.148	1.642	-1.181	–	–	–	–	–	–
CN(C)[C@@H]1C(=O)C(C(N)=O)=C(O)[C@@]2(O)C(=O)C3=C(O)c4c(O)cccc4[C@@](C)(O)[C@H]3[C@H](O)[C@@H]12 [SJ000285682-4, OXYTETRACYCLINE | OXYTETRACYCLINE DIHYDRATE | OXYTETRACYCLINE HYDROCHLORIDE | OXYTETRACYCLINE (TERRAMYCIN)]	25.02	0.3169	-0.1554	0.1991	3.957	-2.364	0.3352	-1.23	–	–	–	–	–	–
Cn1c(=O)c2c(ncn2C)n(C)c1=O [SJ000285694-6, CAFFEINE]	-2.164	0.4974	4.484	0.8967	-2.617	-3.637	-2.594	-1.738	–	–	–	–	–	–
CCn1nc(C(=O)O)c(=O)c2cc3c(cc21)OCO3 [SJ000285711-7, CINOXACIN]	0.6656	-1.975	5.282	0.852	1.821	0.4853	2.404	3.259	–	–	–	–	–	–
CN(C)/N=N/c1[nH]cnc1C(N)=O [SJ000285718-4, DACARBAZINE]	9.396	-0.5509	-1.918	-1.6	31.43	31.68	1.118	4.433	–	–	–	–	–	–
C#C[C@]1(O)CC[C@H]2[C@@H]3CCC4=Cc5oncc5C[C@]4(C)[C@H]3CC[C@@]21C [SJ000285723-7, DANAZOL]	3.76	0.4162	0.05908	-0.3914	13.86	-0.5732	4.655	3.859	–	–	–	–	–	–
CC(=O)N(O)CCCCCNC(=O)CCC(=O)N(O)CCCCCNC(=O)CCC(=O)N(O)CCCCCN [SJ000285725-5, DEFEROXAMINE MESYLATE]	–	–	–	49.53	–	–	32.98	–	11.75	13.98	9.207	54.77	30.74	0.1216
